Key:
HCV [1] = conditions: cited from earlier work
HCV [2] = conditions: clinical trials, at 24 h following a single dose of 10 mg; cited from earlier work
[3] = tested on: subgenomic HCV 1b replicon; assay: HCV RNA replication in Huh7 cells containing a subgenomic HCV 1b replicon; format: cell-based, HCV genotype 1b; conditions: for decrease of activity on introduction of torsion angle in the linker: one range stated for the group of compounds

Row | Compound | decrease of activity on introduction of torsion angle in the linker ([3]; HCV 1b replicon) | anti-HCV activity (in words) ([3]; HCV 1b replicon) | also measured
1 | COC(=O)N[C@H](C(=O)N1CCC[C@H]1c1ncc(-c2ccc(-c3ccc(-c4cnc([C@@H]5CCCN5C(=O)[C@@H](NC(=O)OC)C(C)C)[nH]4)cc3)cc2)[nH]1)C(C)C [BMS-790052] | – | – | median effective antiviral concentration (EC50) in vitro (HCV [1]): picomolar range; reduction in HCV RNA (HCV [2]): over 3 log10 IU/mL
2 | COC(=O)N[C@H](C(=O)N1CCC[C@H]1c1ncc(-c2ccc(Oc3ccc(-c4cnc([C@@H]5CCCN5C(=O)[C@@H](NC(=O)OC)C(C)C)[nH]4)cc3)cc2)[nH]1)C(C)C [Compound 5b] | 16- to 15,000 fold | – | –
3 | COC(=O)N[C@H](C(=O)N1CCC[C@H]1c1ncc(-c2ccc(NS(=O)(=O)c3ccc(-c4cnc([C@@H]5CCCN5C(=O)[C@@H](NC(=O)OC)C(C)C)[nH]4)cc3)cc2)[nH]1)C(C)C [Compound 5c] | 16- to 15,000 fold | – | –
4 | COC(=O)N[C@H](C(=O)N1CCC[C@H]1c1ncc(-c2ccc(-c3ccc(-c4cnc([C@@H]5CCCN5C(=O)[C@@H](NC(=O)OC)C(C)C)[nH]4)s3)cc2)[nH]1)C(C)C [Compound 5d] | – | almost complete loss of anti-HCV activity | –
5 | COC(=O)N[C@H](C(=O)N1CCC[C@H]1c1ncc(-c2ccc(-c3ccc(-c4ccc(-c5cnc([C@@H]6CCCN6C(=O)[C@@H](NC(=O)OC)C(C)C)[nH]5)cc4)cc3)cc2)[nH]1)C(C)C [Compound 11a] | – | low picomolar range | therapeutic index CC50/EC50 ([3]; HCV replicon assay): over four million
6 | COC(=O)N[C@H](C(=O)N1CCC[C@H]1c1ncc(-c2ccc(-c3ccc(-c4ccc(-c5cnc([C@@H]6CCCN6C(=O)[C@@H](NC(=O)OC)C(C)C)[nH]5)cc4)nc3)cc2)[nH]1)C(C)C [Compound 11b] | – | low picomolar range | –
7 | COC(=O)N[C@H](C(=O)N1CCC[C@H]1c1ncc(-c2ccc(-c3cccc(-c4ccc(-c5cnc([C@@H]6CCCN6C(=O)[C@@H](NC(=O)OC)C(C)C)[nH]5)cc4)c3)cc2)[nH]1)C(C)C [Compound 11c] | 16- to 15,000 fold | – | –
8 | COC(=O)N[C@H](C(=O)N1CCC[C@H]1c1ncc(-c2ccc(-c3ccc(-c4ccc(-c5cnc([C@@H]6CCCN6C(=O)[C@@H](NC(=O)OC)C(C)C)[nH]5)cc4)s3)cc2)[nH]1)C(C)C [Compound 11d] | 16- to 15,000 fold | – | –
9 | COC(=O)N[C@H](C(=O)N1CCC[C@H]1c1ncc(-c2ccc(-c3ccc(-c4ccc(-c5ccc(-c6cnc([C@@H]7CCCN7C(=O)[C@@H](NC(=O)OC)C(C)C)[nH]6)cc5)cc4)cc3)cc2)[nH]1)C(C)C [Compound 11e] | – | – | loss of activity at the EC50 level compared to BMS-790052 ([3]; HCV 1b replicon): 37 fold
10 | COC(=O)N[C@H](C(=O)N1CCC[C@H]1c1ncc(-c2ccc(-c3cn(-c4ccc(-c5cnc([C@@H]6CCCN6C(=O)[C@@H](NC(=O)OC)C(C)C)[nH]5)cc4)nn3)cc2)[nH]1)C(C)C [Compound 17] | 16- to 15,000 fold | – | –

Reference: PMC7732024 (Bioorganic & medicinal chemistry letters, 2012)
